Data on 12 molecules can be found in patent publication US6827926B2, “Metallotetrapyrrolic photosensitizing agents for use in photodynamic therapy” (Miravant Pharmaceuticals, Inc., priority 2001, dated 2004).

pEC50: −log10 of the molar value. Like-named read-outs stand apart in the source and are kept apart here.

Data set [1] deals with V79 (Chinese Hamster Lung Fibroblasts) cells. Kind of data set: In vitro cytotoxicity assay (light EC50, Alamar blue). It counts as cell-based. In outline: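 V79 cells in phenol-free 5% FBS/DMEM exposed 24 h to photosensitizer at final 0.01–5.0 μM, six replicates, then washed and light-treated, with a dark plate as control. Survival by Alamar blue after 24 h dark incubation, read at 570/600 nm.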

The test system of data set [2] is normal skin of CD Hairless male rats. The format is in vivo, rat. The method, boiled down:
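Liposomal egg yolk phospholipid photosensitizer given as single i.v. tail-vein bolus at 1, 1.5 and 2 μmol/kg; skin spots irradiated with 532 nm laser (150 mW/cm^2, 150J, 1 cm) at 1, 6, 24, 48, 96 hrs post injection. Value is time of last observed skin response spot.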

Data set [3] deals with normal uninjured rat carotid arteries (medial and adventitial cell populations). In words: In vivo rat carotid artery acellularity after PDT. The following applies: drug dose 1 μMol; for Max % rat Artery Accelularity: Table 3, 50 J/cm^2, 3 days post treatment; for Max % Rat Artery Acceluarity: Table 5; for Max % Rat Artery Accelularity: Table 4, 575 nm (Pt 532 nm). Further details: species or system Sprague Dawley rats. In outline:
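Metallated photosensitizers light-activated in normal uninjured rat left common carotid via balloon catheter introduced through femoral arteriotomy under isoflurane; excitation 575 nm (Ga, Zn, Al, Sn) or 532 nm (Pt). Arteries harvested 3 days post-treatment, H&E-stained; medial and adventitial cell density assessed by light microscopy.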

The test system of data set [4] is skin of Sprague Dawley rats. Kind of data set: Topical in-vivo skin response, Sprague Dawley rats (single topical dermal application).
A short description of data set [5]: Systemic toxicity in animals near the therapeutic dose. As to conditions: 3× the therapeutic dose.
The mark [6] stands for this setting: Table 3 porphyrins, 24 h drug incubation, 532 nm, 1.25 J/cm^2, read-out: In Vitro EC50 Light.
[7] abbreviates: Table 3, time of last skin spot observed post injection, 1 μmol, 532 nm laser.
[8] abbreviates: Table 5 plant derived gallium porphyrins, light, read-out: In Vitro EC(50).
Where [9] appears, read: Table 4 azaporphyrins, 575 nm (Pt azaporphyrins 532 nm), 1.25 J/cm^2, read-out: In Vitro EC(50).
Where [10] appears, read: Table 4, time of last skin spot observed post injection, 1 μmol.

Consider `CCCOC(=O)CCC1=C(C)c2cc3[n-]c(cc4nc(cc5[n-]c(cc1n2)c(CCC(=O)OCCC)c5C)C(CC)=C4C)c(CC)c3C.[Cl-].[Ga+3]` [Example 3, Gallium Chloride Mesoporphyrin Dipropyl Ester], for which the pEC50 in data set [1] (setting [6]) is 7.22. Also, the “Normal skin Response (1 μmol)” value in data set [2] (setting [7]) amounted to 6 h. Besides, in data set [3], the “Max % rat Artery Accelularity” value amounted to 85%. Moreover, in data set [4] (topical 0.14 mg/cm^2), the “delay of hair regrowth” value is on record as “approximately 21 days” and the skin response entry was “no skin response”. Moreover, in data set [4] (topical 0.28 mg/cm^2), the “clearing formation of the skin first seen, time post light treatment” value is reported as 7 days; the “delay of hair regrowth in the treatment site post light treatment” value is given as “approximately 38 days”; the “persistence of clearing formation of the skin” value is “at least 28 days”. In data set [4] (topical 0.6 mg/cm^2), the “clearing formation, duration” value is reported as “at least 30 days”; the “skin responses (small, slight eschar), duration post light treatment” value is on record as “approximately 10 days”; the “time hair did not regrow in the treatment site post light treatment” value was “approximately 38 days”; the “variable clearing persisting post light treatment” value was “up to 3 months”.

With `CC1=Cc2cc3[n-]c(cc4nc(cc5[n-]c(cc1n2)cc5C)C(C)=C4CCC(=O)OCCF)c(CCC(=O)OCCF)c3C.[Cl-].[Ga+3]` [Example 37, Gallium Chloride Deuteroporphyrin di (2-fluoroethylester)], the pEC50 in data set [1] (setting [6]) was 6.40. Moreover, the “Normal skin Response (1 μmol)” value in data set [2] (setting [7]) stood at 48 h. For the same molecule, the “Max % rat Artery Accelularity” value in data set [3] is recorded as 80%.

With `CCC1=C(C)c2cc3[n-]c(cc4nc(cc5[n-]c(cc1n2)c(C)c5CC)C(C)=C4CCC(=O)OCCCCl)c(CCC(=O)OCCCCl)c3C.[Cl-].[Ga+3]` [Example 35, Gallium Chloride Mesoporphyrin di (3-chloropropylester)], the pEC50 in data set [1] (setting [6]) was 6.40. In data set [2] (rat, in vivo), the “Normal skin Response (1 μmol)” value was found to be 96 h. Further, in data set [3], the “Max % rat Artery Accelularity” value came to 80%.

On to `CCC1=C(C)C2=[N+]3C1=Cc1c(C)c(CC)c4[n]1[Pt-2]31[n]3c(c(C)c(CCC(=O)NC)c3=CC3=[N+]1C(=C4)C(C)=C3CCC(=O)NC)=C2` (centres unmarked) [Example 60, Platinum Mesoporphyrin N-methylamide], for which, in data set [1] (setting [6]), the pEC50 is 6.92. In data set [2] (rat, in vivo), the “Normal skin Response (1 μmol)” value came to 96 h. Further, in data set [3], the “Max % rat Artery Accelularity” value is 25%.

As to `CCC1=C(C)C2=Cc3c(CC)c(C)c4[n]3[Ga-2]35([Cl])[n]6c(c(C)c(CO)c6=CC6=[N+]3C(=C4)C(C)=C6CCCO)=CC1=[N+]25` [M=Ga R1=CH2OH R2=Et R3=Et R4=CH2OH R5=H], in data set [1] (setting [8]), the pEC50 is 6.39. The same molecule yielded a Normal skin Response (1 μmol) in data set [2] (rat, in vivo) of 48 h. In addition, the “Max % Rat Artery Acceluarity” value in data set [3] was 70%.

With `C=CC1=C(C)c2nc1cc1[n-]c(cc3nc(cc4[n-]c(n2)c(C)c4CCC(=O)OC)C(CCC(=O)OC)=C3C)c(C=C)c1C.[Cl-].[Ga+3]` [Example 19, Gallium Chloride 5-azaprotoporphyrin IX Dimethyl Ester], the pEC50 in data set [1] (setting [9]) is 6.40. In data set [2] (setting [10]), the “Normal skin Response (1 μmol)” value is 24 h. For the same molecule, the “Max % Rat Artery Accelularity” value in data set [3] was found to be 55%.

Regarding “Gallium Chloride Chloroporphyrin e6 Trimethyl Ester [Example 13]”, the pEC50 in data set [1] (setting [8]) was 6.40. This molecule returned a Normal skin Response (1 μmol) in data set [2] (rat, in vivo) of 6 h. Moreover, the “Max % Rat Artery Acceluarity” value in data set [3] was determined as 70%.

As to `CCC1=C(CC)C2=Nc3c(CC)c(CC)c4[n]3[Ga]([Cl])[n]3c(c(C)c(CCCC(=O)OC)c3=CC3=NC(=C4)C(C)=C3CCCC(=O)OC)=CC1=N2` [Example 108, Gallium Chloride 7,8,12,13-tetraethyl-12,17-dimethyl-10-azaporphyrin-2,18-di(butanoic acid methyl ester)], the pEC50 in data set [1] (setting [9]) was 6.40. The “Normal skin Response (1 μmol)” value in data set [2] (setting [10]) is 24 h. In data set [3], the “Max % Rat Artery Accelularity” value turned out to be 55%.

For `CCC1=C(C)c2cc3[n-]c(cc4nc(cc5[n-]c(cc1n2)c(C)c5CC)C(C)=C4CCCC(=O)OC)c(CCCC(=O)OC)c3C.[Cl-].[In+3]` [Example 46, Indium Chloride 8,13-diethyl-3,7,12,17-tetramethylporphyrin-2,18-di(butanoic acid methyl ester)], the pEC50 in data set [1] (setting [6]) is 7.40. For the same molecule, in data set [2] (setting [7]), the “Normal skin Response (1 μmol)” value was 48 h. In addition, the “Max % rat Artery Accelularity” value in data set [3] is listed as 90%. Also, the toxicity in animals entry in data set [5] is “death occurs in the animals at 3× the therapeutic dose”.

Regarding `CCC1=C(C)C2=Cc3c(CC)c(C)c4[n]3[Ga-2]35([Cl])[n]6c(c(C)c(CCCC(=O)OCCF)c6=CC6=[N+]3C(=C4)C(C)=C6CCCC(=O)OCCF)=CC1=[N+]25` [M=Ga R1=Et R3=Me R4=Et R2=CH2CO2CH2CH2F], in data set [1] (setting [6]), the pEC50 is 6.40. The “Normal skin Response (1 μmol)” value in data set [2] (rat, in vivo) was found to be 24 h. In data set [3], the “Max % rat Artery Accelularity” value was found to be 75%.

Take `CCCCCCNC(=O)CCC1=C(C)C2=Cc3c(C)c(CC)c4[n]3[Ga-2]35([Cl])[n]6c(c(C)c(CCC(=O)NCCCCCC)c6=CC1=[N+]23)=CC1=[N+]5C(=C4)C(C)=C1CC` [M=Ga R1=Et R3=Me R4=Et R2=CONH(Hexyl)]: the pEC50 in data set [1] (setting [6]) was 6.40. For the same molecule, the “Normal skin Response (1 μmol)” value in data set [2] (setting [7]) came out at 96 h. Moreover, in data set [2] (rats, drug dose 1 μmol/Kg), the “normal skin responses, time post drug injection” value was 96 h. In addition, the “Max % rat Artery Accelularity” value in data set [3] is reported as 60%.

Regarding `CCC1=C(C)C2=[N+]3C1=Cc1c(C)c(CC)c4[n]1[Ga-2]31([Cl])[n]3c(c(C)c(CCC(=O)NCCOC)c3=CC3=[N+]1C(=C4)C(C)=C3CCC(=O)NCCOC)=C2` [Example 11, Gallium Chloride Mesoporphyrin di-(2′-methoxyethyl amide)], the pEC50 in data set [1] (setting [6]) is 5.72. For the same molecule, the “Normal skin Response (1 μmol)” value in data set [2] (rat, in vivo) is 6 h. The “Max % rat Artery Accelularity” value in data set [3] amounted to 30%.
